What all share (experiment): NCI anticancer screen, dose series, 48 h
The subject of experiment [1] is COLO 205 colon.
Experiment [2] has as its system HL-60(TB) leukemia.
The subject of experiment [3] is CCRF-CEM leukemia.
Experiment [4] concerns HOP-92 NSCLC.
The test system of experiment [5] is OVCAR-8 ovarian.
Experiment [6] has as its system HCT-116 colon.
Experiment [7] concerns OVCAR-5 ovarian.
Experiment [8] has as its system EKVX NSCLC.
The subject of experiment [9] is U251 CNS.
Experiment [10] has as its system SF-295 CNS.
In experiment [11] the test system is KM12 colon.
The test system of experiment [12] is MDA-N.
Experiment [13] has as its system MDA-MB-231 breast.

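Five concentrations, 48 hours, 96-well plates. TGI marks complete inhibition of growth.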

Consider `CC(=O)c1ccc(-c2oc(-c3ccccc3)cc2-c2ccc3c(c2)OCO3)s1`, for which the TGI in experiment [1] was more than 100 µM; in experiment [2], 2.36 µM; in [3], 2.99 µM; in [4], more than 100 µM; in experiment [5], more than 100 µM; in [6] it was more than 100 µM. The TGI in [7], in experiment [8], in experiment [9] and in experiment [10] was more than 100 µM each time.
As to `N#CN=Nc1cc(Cl)c(N=NC#N)cc1Cl`, the TGI was more than 100 µM in [1]; more than 100 µM in experiment [2]; 92.2 µM in experiment [3]; more than 100 µM in experiment [11]; more than 100 µM in [4]; more than 100 µM in [5]. Moreover, the TGI in experiment [6], in [7], in experiment [8], in [9] and in experiment [10] was more than 100 µM throughout.
For `O=C1O/C(=C\c2ccc(O)c(Br)c2)C(c2ccc(O)cc2)=C1Cl`, the TGI in [1] is more than 100 µM; in experiment [2], more than 100 µM; in [3] it was 41.1 µM; in experiment [11] it was more than 100 µM; in [4] it was more than 100 µM; in experiment [5], more than 100 µM. Besides, the TGI was more than 100 µM in experiment [6]; more than 100 µM in experiment [7]; more than 100 µM in experiment [8]; more than 100 µM in [9]; more than 100 µM in [10]; 74.5 µM in experiment [12].
With `COc1cc(CC2CCc3nc(N)nc(N)c3C2)cc(OC)c1OC` (stereo not given), the TGI was 21.6 µM in experiment [1]; more than 100 µM in experiment [11]; more than 100 µM in experiment [4]; more than 100 µM in experiment [5]; more than 100 µM in [7]; more than 100 µM in experiment [13]. Also, the TGI in experiment [8] is more than 100 µM; in experiment [9], more than 100 µM; in experiment [10], more than 51.3 µM.
`CN(C(=O)OC(C)(C)C)[C@H]1CCCC[C@H]1N1CCCC1`: the TGI in experiment [1], in [2], in experiment [3], in experiment [11], in experiment [5] and in [6] was more than 100 µM throughout. For the same compound, the TGI in [7], in experiment [13], in experiment [8], in experiment [9] and in experiment [10] was more than 100 µM each time.
Take `C1COC2SC3=C(SC(=C4SC5=C(SCCS5)S4)S3)SC2O1` (stereo not given): the TGI in experiment [1], in experiment [2], in experiment [3], in experiment [11], in [4] and in experiment [5] was more than 100 µM each time. In addition, the TGI in experiment [6], in experiment [7], in experiment [13], in [8], in [9] and in experiment [10] was more than 100 µM throughout.
Take `COc1ccc(C2Oc3c(cccc3OC)C=C2[N+](=O)[O-])cc1OC` (stereo not given): the TGI in [1] was 73.7 µM; in experiment [2] it was more than 100 µM; in experiment [3], more than 100 µM; in experiment [11], 34 µM; in [6], 17.4 µM; in [7] it was 51.4 µM. For the same compound, the TGI in experiment [13] is more than 100 µM; in experiment [8], more than 100 µM; in [9], 15.2 µM; in experiment [10], 71.7 µM; in experiment [12], more than 100 µM.
`CCSC(=Nc1ccccc1)SC`: the TGI in [1], in [2], in [3], in experiment [11], in experiment [4] and in [5] was more than 100 µM in each case. Also, the TGI in [6], in experiment [7], in experiment [8], in experiment [9] and in [10] was more than 100 µM each time.
Regarding `Cc1nnc(Nc2ccc(Cl)cc2)o1`, the TGI in experiment [1], in [2], in experiment [3], in experiment [11], in [5] and in experiment [6] was more than 10 µM each time. For the same compound, the TGI in experiment [13], in [8], in experiment [9], in [10] and in experiment [12] was more than 10 µM in each case.
For `COC(=O)[C@H](CCSC)NC(=O)c1ccc(CNC(=O)/C=C/c2cccc(Oc3ccccc3)c2)cc1`, the TGI was 50.5 µM in experiment [1]; more than 100 µM in experiment [3]; more than 100 µM in experiment [11]; 28.1 µM in experiment [4]; more than 100 µM in experiment [5]; more than 100 µM in experiment [6]. Also, the TGI in [7] is more than 100 µM; in experiment [13], more than 83.5 µM; in experiment [8] it was more than 100 µM; in experiment [9], more than 100 µM; in experiment [10] it was more than 100 µM.
For `CC1=CC(C)C(C)N(CCNC(=O)Nc2ccccc2)c2ccccc21` (stereo not given), the TGI in experiment [1] turned out to be 32.6 µM; in [3] it was 62.8 µM; in [11], 57.9 µM; in experiment [5] it was 54.3 µM; in experiment [6] it was 35 µM; in experiment [7] it was 92.6 µM. The TGI is 31.1 µM in experiment [13], 76.3 µM in experiment [8], 40.6 µM in experiment [10] and more than 100 µM in experiment [12].
As for `CN(C)CCOc1cc2c(c3ccccc13)-c1ccccc1C2=O`, the TGI was determined as 3.68 µM in experiment [1]; 2.7 µM in [2]; 10.8 µM in experiment [3]; 3.03 µM in [11]; 4.25 µM in experiment [4]; 3.23 µM in experiment [5]. Also, the TGI in experiment [6] was found to be 2.93 µM; in experiment [7] it was 7.05 µM; in experiment [8], 18.5 µM; in experiment [9] it was 6.58 µM; in [10], 4.42 µM.

Source of the values: PubChem BioAssay (NCI).
